# How the values were obtained:
# [1] = test system: iPS cell-derived cardiomyocytes (iCell Cardiomyocytes); test: Secondary screening: morphometric analysis of iCell Cardiomyocytes; assay type: cell-based, human
# Excerpt: A library of 800 small molecule compounds that can stimulate favorable cardiac adaptation in primary neonatal rat ventricular myocytes (NRVM) was screened. To identify the beneficial modifiers of hypertrophy, the Cellomics Arrayscan High Throughput Screening platform was employed to quantify morphometric features such as, for example, length, width, and length to width ratio from images acquired using a 10× lens for DAPI-labeled nuclei and CY3 labeled α actinin stained cardiomyocytes in a 96 well format. The lead compound was also screened in iPSC derived cardiomyocytes as a part of secondary screening as it offers a physiologically relevant human cell-based model.
# A secondary screening was performed with 10 drugs identified from primary screening for their ability to induce physiological remodeling using morphometric analysis and measuring the levels of B-type natriuretic peptide (BNP), as a surrogate indicator of the hypertrophic response using ELISA. The compounds were selected based on the highly enriched targets identified in the drug set enrichment analysis with a high Z score. Cryopreserved iPS cell-derived cardiomyocytes (“iCell Cardiomyocytes”) obtained from Cellular Dynamics International (CDI, Madison, WI) were used as a cell model to perform the screening.
# The cells were plated at a density of 2.5×10^4 cells onto 25 mm diameter fibronectin coated glass coverslips in plating media for 48 hours. The media was replaced with Supplemented William's E (SWE) medium (SWE) media supplemented with cocktail containing penicillin-streptomycin, ITS+(insulin, transferrin, selenium complex, BSA, and linoleic acid), GlutaMAX™, and HEPES (Primary Hepatocyte Maintenance Supplements-GIBCO) for 48 hours. The cells were treated with controls (CT1-40 ng/mL, PE-100 uM) and drugs (AZD1152-HQPA, LY283519) at varying concentrations (2.5, 1, 0.5, and 0.25 uM) for 24 hours.
# Post treatments, the cells were washed, fixed and treated with primary antibody, secondary antibody similar to the protocol of Example 3. The effect on the morphometric parameters was assessed using Cellomics Arrayscan Vti HCS reader. The Image acquisition was performed using the Zeiss AxioVision SE64 Imaging software and analyzed using the ImageJ2 software.
# iCell cardiomyocytes were seeded at a density of 10,000 cells per well in a 96 well plate format. The cells were maintained as in Example 3 and were treated with controls (hCT1, PE) and drugs (AZD1152-HQPA, LY283519) at four different concentrations for 24 hours. The cells were then fixed and stained with a Actinin for cardiomyocytes followed by nuclear staining with DAPI. The plates were analyzed in Cellomics Arrayscan Vti HCS reader to assess morphometric changes following treatment.
# CDK4 = test: pCDK4 Thr172 immunofluorescence and remodeling in primary cardiomyocytes; assay type: cell-based
# Excerpt: Post treatment, the cells were washed, fixed, and were subjected to sequential staining of primary antibodies a Actinin and phospho-CDK4 (Thr172). The images were acquired using the Zeiss AxioVision SE64 Imaging software and analyzed using the ImageJ2 software.
# Immunofluorescence was used to detect α-actinin, pCDK4 Thr172, and nuclei were stained with DAPI. […] The nuclear fluorescent intensity of pCDK4 Thr172 using the ImageJ software. The data are represented as Mean±Standard deviation.
# collagen type I = test: Collagen type I immunofluorescence in NRVM; assay type: cell-based, neonatal rat
# Experimental: Primary NRVMs were seeded at a density of 2.7×10^5 cells directly onto 25 mm diameter collagen-coated glass coverslips. The treatments with control (PE) and drugs LY283519 were performed for 24 hours. […] Post treatment, the cells were washed three times in PBS followed by fixation in 4% paraformaldehyde for 30 min. Cells were then permeabilized in blocking buffer (1% bovine serum albumin (BSA), 2% normal goat serum, 0.4% Tx-100 in PBS) for 15 min and were incubated for 2 h at room temperature with primary a Actinin and collagen type I antibody, followed by three successive washes in PBS in a humidified chamber. Cells were then blocked again in blocking buffer for 15 min followed by a 1-hour incubation in fluorescently conjugated secondary antibody. Cells were then washed again in PBS and the nuclei were counterstained with 4′,6-diamidino-2-phenylindole (DAPI). The cells were mounted onto microscope slides with Dako Cytomation fluorescent mounting medium (Dako). Digital fluorescent images were obtained using the Zeiss AxioVision SE64 Imaging software and analyzed using ImageJ2 software.
# cardiomyocytes (NRVMs) = test: Oxygen consumption rate of cardiomyocytes (Seahorse Mito Stress Test); assay type: cell-based, neonatal rat; conditions: 24 h treatment; vs untreated control; FIG. 12
# Experimental: OCR detection of cardiomyocytes was conducted with the Seahorse Xfe 24 analyzer (Agilent, Santa Clara, USA). Cardiomyocytes were seeded at a density of 8×10^4/well in a special Seahorse 24-well plate (102342-100, Seahorse). After treating with hCT1, PE and drug for 24 h, the medium was replaced with XF medium containing 10 mM D-(+)-glucose (G7021, Sigma-Aldrich), and 1 mM sodium pyruvate (11360070, Thermo Fisher). The plates were placed in a CO2-free 37 °C incubator for an hour before the measurement. A Seahorse XF Cell Mito Stress Test Kit (103015-100, Seahorse) was used for detection. The basal respiration of the NRVMs was detected, and ATP-linked OCR was analyzed after treatment with 1 μM oligomycin (ATP synthase inhibitor). Then, the uncoupling agent carbonyl [COMPOUND LEFT OUT] 4-(trifluoromethoxy) phenylhydrazone (FCCP) 0.5 μM was injected to detect maximal respiration. Finally, rotenone and antimycin A (AR) were used to abolish mitochondrial respiration by inhibiting complexes I and III, respectively.
# cardiac fibrosis = test: Cardiac fibrosis by Masson's trichome staining in PE rat model; assay type: in vivo, Sprague Dawley rat
# Experimental: (§1) Animal Model Preparation. Sprague Dawley rats were continuously treated with phenylephrine (PE), an α-adrenergic agonist that causes vasoconstriction leading to increased afterload and decreased ventricular function, to create a left-ventricular dysfunction animal model. […] For chronic infusion of phenylephrine, Alzet® mini-osmotic pumps (2002, Durect® Corp) containing Phenylephrine (PE) (10 mg/kg/day) or PBS vehicle were surgically implanted dorsally and subcutaneously in each Sprague Dawley rat under isoflurane anaesthesia. The animals were allowed to develop left ventricular hypertrophy for 2 weeks following the osmotic pump implantation.
# (§2) Echocardiography was performed, the animals were sacrificed at 3 weeks endpoint and the blood and tissue were harvested for further analysis.
# The rat model was prepared as described in Example 12, and the cardiac tissue harvested at the end of the 3 weeks was prepared with Masson's trichome staining methodology, which is a histological technique used to visualize and assess connective tissue, particularly collagen, within biological samples.
# [2] = test system: cardiac angiogenesis (CD31); test: Cardiac angiogenesis by CD31 staining in PE rat model; assay type: in vivo, Sprague Dawley rat
# Experimental: as §1, §2
# The rat model was prepared as described in Example 12, and the cardiac tissue harvested at the end of the 3 weeks was prepared for CD31 Staining, which is a histological technique used to visualize and assess angiogenesis in cardiac tissue.
# [3] = single treatment, 24 hours, vs control
# [4] = PE, compared to control sham animals
structure (smiles),measurement,setting,value
CCN1CCN(Cc2ccc(Nc3ncc(F)c(-c4cc(F)c5nc(C)n(C(C)C)c5c4)n3)nc2)CC1 [LY2835219],Mean Cardiomyocyte Length,"[1]; iCell Cardiomyocyte, drug 0.25 μm, 24 hours, UT 213.01323",221 µm
same,Mean Cardiomyocyte Length,"[1]; iCell Cardiomyocyte, drug 0.5 μm, 24 hours, UT 213.01323",239 µm
same,Mean Cardiomyocyte Length,"[1]; iCell Cardiomyocyte, drug 1 μm, 24 hours, UT 213.01323",242 µm
same,Mean Cardiomyocyte Length,"[1]; iCell Cardiomyocyte, drug 2.5 μm, 24 hours, UT 213.01323",245 µm
same,Eccentric cardiac remodeling,"[1]; iCell cardiomyocyte, 1 uM, FIG. 4A",Eccentric cardiac remodeling was observed
same,cardiomyocyte length compared with CT1 treated cells,"[1]; iCell cardiomyocytes on coverslips, 24 hours",comparable cardiomyocyte length
same,length in iCell cardiomyocyte compared to hCT1,"[1]; iCell cardiomyocytes, 96 well, four concentrations, 24 hours",increased length in iCell cardiomyocyte comparable to length induced by hCT1
same,CDK4 activation,CDK4; LY2835219 1.5 μM,inhibited CDK4 activation
same,pathological effect of PE,CDK4; drug for 4 hr following PE treatment for 24 hours,able to reverse the pathological effect of PE
same,expression of collagen type I,collagen type I; PE for 24 hrs followed by LY2835219 for 24 hrs,decreased expression of collagen type I
same,expression of collagen type I,collagen type I; [3],decrease in expression of collagen type I
same,oxygen consumption rate (OCR),cardiomyocytes (NRVMs),increase the rate of oxygen consumption
same,cardiac fibrosis,cardiac fibrosis; LY2835219 in animals subjected to PE treatment,did reduce fibrosis
same,cardiac fibrosis,cardiac fibrosis; LY2835219 treatment alone,did not induce fibrosis
same,cardiac angiogenesis,[2]; LY2835219 in PE treated animals,improve angiogenesis
same,cardiac angiogenesis,[2]; LY2835219 treatment,increased angiogenesis
"CNC[C@H](O)c1cccc(O)c1 [PE, phenylephrine]",Mean Cardiomyocyte Length,"[1]; 24 h, 100 µM",191 µm
same,CDK4 activation,CDK4; PE 100 μM,CDK4 activation
same,cardiomyocyte remodeling,CDK4; PE 100 μM,concentric hypertrophic remodeling was observed
same,expression of collagen type I,collagen type I; [3],increased expression of type I collagen compared to control
same,oxygen consumption rate (OCR),cardiomyocytes (NRVMs),reduced oxygen consumption rate
same,cardiac fibrosis,cardiac fibrosis; [4],significant increase in cardiac fibrosis
same,CD31 staining,[2]; [4],significantly decreased CD31 staining

# Reference: patent US20260345605A1, “THERAPEUTIC AGENTS FOR HEART FAILURE” (Ottawa Hospital Research Institute, priority 2023, published 2026)
